Experimental data reported in PubChem BioAssay (NCI).
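Interpolation was linear, between the two tested concentrations surrounding the appropriate level; five concentrations were tested over 48 hours in 96-well plates. GI50 = concentration required for 50% inhibition of growth. TGI: total growth inhibition.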

What was measured:
Experiment in all cases: inhibition of tumour cell growth, NCI panel, 48 h
CAKI-1 renal = tested on: CAKI-1 renal
HCC-2998 colon = tested on: HCC-2998 colon
HCT-15 colon = tested on: HCT-15 colon
NCI-H460 lung = tested on: NCI-H460 lung
SK-MEL-5 melanoma = tested on: SK-MEL-5 melanoma
LOX IMVI melanoma = tested on: LOX IMVI melanoma
MCF7 breast = tested on: MCF7 breast
CCRF-CEM leukemia = tested on: CCRF-CEM leukemia
HCT-116 colon = tested on: HCT-116 colon
SNB-19 CNS = tested on: SNB-19 CNS
UACC-257 melanoma = tested on: UACC-257 melanoma
UACC-62 melanoma = tested on: UACC-62 melanoma
DU-145 prostate = tested on: DU-145 prostate
IGROV1 ovarian = tested on: IGROV1 ovarian
NCI/ADR-RES ovarian = tested on: NCI/ADR-RES ovarian
SF-539 CNS = tested on: SF-539 CNS
786-0 renal = tested on: 786-0 renal
TK-10 renal = tested on: TK-10 renal
HS 578T breast = tested on: HS 578T breast
MDA-MB-231 breast = tested on: MDA-MB-231 breast
K-562 leukemia = tested on: K-562 leukemia
UO-31 renal = tested on: UO-31 renal
OVCAR-8 ovarian = tested on: OVCAR-8 ovarian
RXF 393 renal = tested on: RXF 393 renal
SK-OV-3 ovarian = tested on: SK-OV-3 ovarian
HT29 colon = tested on: HT29 colon
ACHN renal = tested on: ACHN renal
RPMI-8226 leukemia = tested on: RPMI-8226 leukemia
SK-MEL-28 melanoma = tested on: SK-MEL-28 melanoma

Q: `COc1ccc(-c2nc(C(=O)c3ccccc3)n(CC(=O)c3ccc(Cl)cc3)c2-c2ccc(OC)cc2)cc1` was tested. Which GI50 (CAKI-1 renal) did it give?
A: Its GI50 is over 100 µM.

Q: What about the TGI (CAKI-1 renal) of the same molecule?
A: The TGI was over 100 µM.

Q: And the GI50 (HCC-2998 colon)?
A: Its GI50 is over 100 µM.

Q: And the TGI (HCC-2998 colon)?
A: Its TGI is over 100 µM.

Q: What about the GI50 (HCT-15 colon) of the same molecule?
A: Its GI50 is over 100 µM.

Q: What about the TGI (HCT-15 colon) of the same molecule?
A: The TGI was over 100 µM.

Q: What about the GI50 (NCI-H460 lung) of the same molecule?
A: The GI50 was over 100 µM.

Q: What about the TGI (NCI-H460 lung) of the same molecule?
A: Its TGI is over 100 µM.

Q: What about the GI50 (SK-MEL-5 melanoma) of the same molecule?
A: The GI50 was over 100 µM.

Q: And the TGI (SK-MEL-5 melanoma)?
A: Its TGI is over 100 µM.

Q: And the GI50 (LOX IMVI melanoma)?
A: Its GI50 is over 100 µM.

Q: What about the TGI (LOX IMVI melanoma) of the same molecule?
A: The TGI was over 100 µM.

Q: And the GI50 (MCF7 breast)?
A: The GI50 was over 100 µM.

Q: What about the TGI (MCF7 breast) of the same molecule?
A: Its TGI is over 100 µM.

Q: What about the GI50 (CCRF-CEM leukemia) of the same molecule?
A: The GI50 was over 100 µM.

Q: And the TGI (CCRF-CEM leukemia)?
A: Its TGI is over 100 µM.

Q: And the GI50 (HCT-116 colon)?
A: The GI50 was over 100 µM.

Q: And the TGI (HCT-116 colon)?
A: Its TGI is over 100 µM.

Q: What about the GI50 (SNB-19 CNS) of the same molecule?
A: Its GI50 is over 100 µM.

Q: And the TGI (SNB-19 CNS)?
A: Its TGI is over 100 µM.

Q: What about the GI50 (UACC-257 melanoma) of the same molecule?
A: The GI50 was over 100 µM.

Q: What about the TGI (UACC-257 melanoma) of the same molecule?
A: The TGI was over 100 µM.

Q: What about the GI50 (UACC-62 melanoma) of the same molecule?
A: The GI50 was over 100 µM.

Q: And the TGI (UACC-62 melanoma)?
A: The TGI was over 100 µM.

Q: And the GI50 (DU-145 prostate)?
A: Its GI50 is over 100 µM.

Q: And the TGI (DU-145 prostate)?
A: Its TGI is over 100 µM.

Q: What about the GI50 (IGROV1 ovarian) of the same molecule?
A: Its GI50 is over 100 µM.

Q: And the TGI (IGROV1 ovarian)?
A: The TGI was over 100 µM.

Q: What about the GI50 (NCI/ADR-RES ovarian) of the same molecule?
A: The GI50 was over 100 µM.

Q: What about the TGI (NCI/ADR-RES ovarian) of the same molecule?
A: Its TGI is over 100 µM.

Q: What about the GI50 (SF-539 CNS) of the same molecule?
A: The GI50 was over 100 µM.

Q: What about the TGI (SF-539 CNS) of the same molecule?
A: Its TGI is over 100 µM.

Q: What about the GI50 (786-0 renal) of the same molecule?
A: The GI50 was over 100 µM.

Q: And the TGI (786-0 renal)?
A: Its TGI is over 100 µM.

Q: And the GI50 (TK-10 renal)?
A: Its GI50 is over 100 µM.

Q: What about the TGI (TK-10 renal) of the same molecule?
A: Its TGI is over 100 µM.

Q: And the GI50 (HS 578T breast)?
A: Its GI50 is over 100 µM.

Q: What about the TGI (HS 578T breast) of the same molecule?
A: Its TGI is over 100 µM.

Q: And the GI50 (MDA-MB-231 breast)?
A: The GI50 was over 100 µM.

Q: And the TGI (MDA-MB-231 breast)?
A: The TGI was over 100 µM.

Q: What about the GI50 (K-562 leukemia) of the same molecule?
A: Its GI50 is over 100 µM.

Q: What about the TGI (K-562 leukemia) of the same molecule?
A: Its TGI is over 100 µM.

Q: And the GI50 (UO-31 renal)?
A: The GI50 was over 100 µM.

Q: What about the TGI (UO-31 renal) of the same molecule?
A: Its TGI is over 100 µM.

Q: And the GI50 (OVCAR-8 ovarian)?
A: The GI50 was over 100 µM.

Q: What about the TGI (OVCAR-8 ovarian) of the same molecule?
A: The TGI was over 100 µM.

Q: What about the GI50 (RXF 393 renal) of the same molecule?
A: The GI50 was over 100 µM.

Q: What about the TGI (RXF 393 renal) of the same molecule?
A: Its TGI is over 100 µM.

Q: What about the GI50 (SK-OV-3 ovarian) of the same molecule?
A: The GI50 was over 100 µM.

Q: What about the TGI (SK-OV-3 ovarian) of the same molecule?
A: Its TGI is over 100 µM.

Q: What about the GI50 (HT29 colon) of the same molecule?
A: The GI50 was over 100 µM.

Q: And the TGI (HT29 colon)?
A: The TGI was over 100 µM.

Q: And the GI50 (ACHN renal)?
A: The GI50 was over 100 µM.

Q: What about the TGI (ACHN renal) of the same molecule?
A: The TGI was over 100 µM.

Q: What about the GI50 (RPMI-8226 leukemia) of the same molecule?
A: The GI50 was over 100 µM.

Q: And the TGI (RPMI-8226 leukemia)?
A: Its TGI is over 100 µM.

Q: And the GI50 (SK-MEL-28 melanoma)?
A: The GI50 was over 100 µM.
